Assay results: publication PMC10781750, “Structural basis of antiphage immunity generated by a prokaryotic Argonaute-associated SPARSA system” (Nature Communications, 2024)

Experiments:
[1] = target: T1, SPARSA (GsSir2/pAgo heterodimer) (Geobacter sulfurreducens, UniProt Q74DF6); experiment: cryo-EM structures ([…] A without, […] A with gRNA/tDNA); type: binding; conditions: endogenous NAD+ copurified; bound in Sir2 domain cleft between Rossmann fold and small domain, near N142 and H186; seen without and with gRNA/tDNA
T1 construct: gene GSU1360; full-length GsSir2 and pAgo coexpressed in E. coli BL21(DE3); 6xHis-SPARSA (also His-SUMO version, SUMO cut by TEV); 1:1 heterodimer; with Short prokaryotic Argonaute (Piwi domain-containing protein)

[2] = target: T1, SPARSA (GsSir2/pAgo heterodimer); experiment: NADase assay, residual NAD+ by NAD/NADH quantitation kit (absorbance […] nm); type: biochemical; conditions: 1 uM SPARSA, 10 uM NAD+, 2 uM gRNA and tDNA (required for activity), 10 mM HEPES pH 7.5, 125 mM KCl, 37 C

T1 sequence (Q74DF6 1-587): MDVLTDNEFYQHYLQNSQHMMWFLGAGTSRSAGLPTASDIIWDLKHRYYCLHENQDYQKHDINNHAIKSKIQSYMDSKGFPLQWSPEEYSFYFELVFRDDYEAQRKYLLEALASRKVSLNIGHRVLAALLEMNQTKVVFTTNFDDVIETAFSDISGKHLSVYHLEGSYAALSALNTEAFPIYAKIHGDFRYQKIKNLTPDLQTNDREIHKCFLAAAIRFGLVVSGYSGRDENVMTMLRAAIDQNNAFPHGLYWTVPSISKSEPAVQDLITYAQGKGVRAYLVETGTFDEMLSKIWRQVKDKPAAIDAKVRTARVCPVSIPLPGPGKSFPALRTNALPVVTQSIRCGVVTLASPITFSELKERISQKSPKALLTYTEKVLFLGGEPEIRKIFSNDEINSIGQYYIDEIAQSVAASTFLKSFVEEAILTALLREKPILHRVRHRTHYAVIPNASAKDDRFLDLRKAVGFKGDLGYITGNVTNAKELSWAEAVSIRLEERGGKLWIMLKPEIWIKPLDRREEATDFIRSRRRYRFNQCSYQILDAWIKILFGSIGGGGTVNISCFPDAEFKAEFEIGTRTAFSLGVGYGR
T1 sequence (Q74DF5 1-473 partner): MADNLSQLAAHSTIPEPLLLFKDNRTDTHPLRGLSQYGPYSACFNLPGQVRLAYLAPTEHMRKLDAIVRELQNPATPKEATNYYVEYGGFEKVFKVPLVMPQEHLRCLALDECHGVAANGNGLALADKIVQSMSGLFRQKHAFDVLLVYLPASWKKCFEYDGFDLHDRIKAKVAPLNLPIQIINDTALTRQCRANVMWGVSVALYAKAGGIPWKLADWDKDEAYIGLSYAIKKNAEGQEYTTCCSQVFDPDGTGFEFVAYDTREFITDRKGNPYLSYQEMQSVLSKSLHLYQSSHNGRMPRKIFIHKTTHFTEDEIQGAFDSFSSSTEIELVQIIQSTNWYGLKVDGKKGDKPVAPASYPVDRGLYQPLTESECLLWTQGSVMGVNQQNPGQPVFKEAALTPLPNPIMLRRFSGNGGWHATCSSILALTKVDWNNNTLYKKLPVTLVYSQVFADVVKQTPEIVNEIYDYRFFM

In the case of `NC(=O)c1ccc[n+]([C@@H]2O[C@H](COP(=O)([O-])OP(=O)(O)OC[C@H]3O[C@@H](n4cnc5c(N)ncnc54)[C@H](O)[C@@H]3O)[C@@H](O)[C@H]2O)c1` [NAD^+], the “cryo-EM structures (3.6 A without, 3.1 A with gRNA/tDNA)” value [1] is reported as “a density within the crevice near the catalytic residues N142 and H186 was observed” and the “NADase assay, residual NAD+ by NAD/NADH quantitation kit (absorbance 450 nm)” value [2] is reported as “nearly no NAD^+ remained in the wild-type SPARSA”.
